According to patent US10285986B2, “Compounds and anti-tumor NQO1 substrates” (The Board of Trustees of the University of Illinois, priority 2011, dated 2019):
Converted amounts (≈) assume the structure as drawn. Where two headings read alike, the source gives them in different places.

Tests used:
MCF-7 cells = experiment: Cytotoxicity to MCF-7 cells with or without 25 μM dicoumarol (sulforhodamine B assay); assay type: cell-based, human; details: for Fold protection by DIC: Table 4.2
Procedure: The NQO1-dependent cytotoxicity of the first set of derivatives was determined in MCF-7 cells which express high levels of NQO1. Cells were exposed to DNQ for 2 hours in the presence or absence of 25 μM DIC. The media was then removed and cells were washed once with media then fresh media was added and the cells were incubated for 72 hours. Cell death was assessed using the sulforhodamine B assay previously described. […] Substitution off the nitrogen appeared well tolerated (4-14 and 4-15).
The DNQ derivatives synthesized were assayed for their toxicity to MCF-7 cells with or without DIC. The data from these experiments is organized in Table 4.2. […] This tolerance of sterically-demanding substituents corresponds with a flexible and promiscuous NQO1 active site. The poor activity of hydroxyl derivative 4-41 may be a result of either poor binding with the largely hydrophobic NQO1 active site or with an excessively strong substrate-enzyme interaction because of hydrogen bonding.

[1] = Aqueous solubility in pH 7.4 PBS by LC-MS; assay type: physicochemical; details: phosphate buffered saline, pH 7.4, aqueous buffer, thermodynamic from solid, PBS pH 7.4; Table 4.3
Procedure: The aqueous solubility of DNQ at pH 7.4 in phosphate buffered saline (PBS) was measured by LC-MS. DNQ was sonicated for 30 minutes in PBS then undissolved solid was removed by filtration through a 0.45 μm syringe filter and the filtrate was analyzed by LC-MS (λ=275 nm, ESI-TOF in negative mode). The optimal sonication time was determined by sonicating DNQ for 1, 5, 10, and 30 minutes. While the concentration of DNQ in solution increased substantially between 1, 5, and 10 minutes, there was only a minor difference between 10 and 30 minutes. During the 30 minute sonication the water bath warmed to 45° C. (samples were cooled to room temperature before filtration). A calibration curve was generated from 1-100 μM by dissolving DNQ in methanol to a concentration of 500 μM and making dilutions of this stock in 80:20 water:methanol. The calibration curve (measure by UV absorbance) was linear over this range; 1 μM was approximately the limit of detection. […] The solution was very pale yellow.
The aqueous solubility of the compounds was determined by an LC-MS assay as described in the specification above. We applied the calibration curve generated for DNQ to the derivatives under the assumption that the UV profile of the derivatives of DNQ would be similar to that of DNQ.
After sonication and filtration most of the aqueous solutions were colorless. The solutions of DNQ, 4-31, and 4-37 were faintly yellow while 4-8, 4-14 and 4-41 were substantially more colored. The solution of 4-8, 4-14 and 4-41 were diluted 10-fold with PBS prior to LC-MS analysis to ensure that the concentrations fell within the range of the calibration curve.

[2] = Solubility in organic solvents; assay type: physicochemical; details: for solubility: organic solvent or mixture, thermodynamic from solid
Procedure: The solubility of DNQ derivatives in organic solvents was determined by measuring the amount of a given solvent required to dissolve a known amount of compound. Solvent was added to the compound in 50 μL aliquots and the slurry was sonicated. […] Solubility was assessed in DMSO, dichloromethane, and 33% methanol in dichloromethane (FIGS. 9, 10, and 11, respectively).

NQO1 = NQO1 (Homo sapiens, UniProt P15559); experiment: NQO1 enzymatic measurements in vitro; assay type: biochemical; details: 1 μM substrate
Procedure: As further evidence that the activity of these DNQ derivatives is dependent on their ability to be reduced by NQO1, full enzymatic measurements in vitro were performed. We found a strong correlation between catalytic efficiency of substrates in vitro and their cell culture toxicity. […] This provides strong evidence that the cytotoxicity of DNQ and its derivatives are dependent primarily upon the activity of NQO1 within the cell.

[3] = Solubility in organic solvents; assay type: physicochemical; details: organic solvent or mixture, thermodynamic from solid; THF; Table 1
[4] = Homo sapiens, MCF7, Table 4.2, no DIC, ± s.e., read-out: IC50 vs. MCF-7 cells
[5] = Homo sapiens, MCF7, classification in figure legends of FIGS. 7-11, read-out: IC50 ("active" / generally "inactive" compounds)
[6] = Homo sapiens, MCF7, read-out: IC50 vs. MCF-7 cells +25 μM DIC, Table 4.2, +25 μM DIC, ± s.e.
[7] = 2:1 CH2Cl2:MeOH, Table 4.3, read-out: Solubility in 2:1 CH2Cl2:MeOH
[8] = Homo sapiens, MCF7, Table 1, read-out: MCF7 IC50
[9] = CH2Cl2:MeOH 2:1, Table 1, read-out: CH2Cl2:MeOH 2:1 solubility
[10] = CH2Cl2, Table 1, read-out: CH2Cl2 solubility
[11] = DMSO, Table 1, read-out: DMSO solubility

Sequence of NQO1 (P15559 whole entry): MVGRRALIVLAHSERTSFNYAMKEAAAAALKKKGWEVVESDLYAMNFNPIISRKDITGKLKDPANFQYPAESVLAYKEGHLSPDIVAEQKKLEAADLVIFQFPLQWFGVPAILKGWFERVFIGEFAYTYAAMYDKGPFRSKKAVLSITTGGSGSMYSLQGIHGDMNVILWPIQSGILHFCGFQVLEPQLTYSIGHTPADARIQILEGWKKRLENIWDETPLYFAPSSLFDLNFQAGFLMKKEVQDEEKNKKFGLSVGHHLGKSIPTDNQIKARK

Row | SMILES | solubility at 30 min [1] [mM] | solubility [2, 7] [mM] | solubility ([2]; CH2Cl2, Table 4.3, read-out: Solubility in CH2Cl2) [mM] | solubility ([2]; DMSO, Table 4.3, read-out: Solubility in DMSO) [mM] | NQO1 Initial Velocity @ 1 μM (NQO1) | Solubility in CH2Cl2 ([2]; CH2Cl2, Table 4.3) [mM] | Solubility in DMSO ([2]; DMSO, Table 4.3) [mM] | solubility [2, 9] [mM] | solubility [2, 10] [mM] | solubility [2, 11] [mM] | solubility [3] [mM] | IC50 (MCF-7 cells; [4]) [µM] | IC50 (MCF-7 cells; [5]) [µM] | IC50 (MCF-7 cells; [6]) [µM] | Fold protection by DIC (MCF-7 cells) | IC50 (MCF-7 cells; [8]) [µM] | Fold Protection of MCF7 cells w/ 25 μM dicoumarol (MCF-7 cells; Table 1) | solubility in solvents evaluated [2] | IC50 (MCF-7 cells; Table 1, read-out: MCF7 IC50) [µM]
1 | Cc1cc(=O)[nH]c2c1C(=O)c1c(C)cc(=O)n(CCCO)c1C2=O [Compound 9-281] | 0.485 (≈ 159 µg/mL) | 11 (≈ 3610 µg/mL) | – | – | 1600 ± 200 | 0.3 (≈ 98.5 µg/mL) | 24 (≈ 7880 µg/mL) | 11 (≈ 3610 µg/mL) | 0.3 (≈ 98.5 µg/mL) | 24 (≈ 7880 µg/mL) | 0.67 (≈ 220 µg/mL) | 0.68 ± 0.15 | > 0.5 | 3.4 ± 0.6 | 5.0 | 0.79 ± 0.1 | 4 | – | –
2 | Cc1cc(=O)[nH]c2c1C(=O)c1c(C)cc(=O)[nH]c1C2=O [Compound 2-78, reference compound] | – | – | – | – | – | – | – | – | – | – | – | – | – | – | – | – | – | insoluble in all solvents evaluated except concentrated acids or bases | –
3 | Cc1cc(=O)n(C)c2c1C(=O)c1c(C)cc(=O)n(C)c1C2=O [SCH, reference compound] | – | – | – | – | 32 ± 2 | – | – | 60 (≈ 17900 µg/mL) | 25 (≈ 7460 µg/mL) | 15 (≈ 4470 µg/mL) | 3.7 (≈ 1100 µg/mL) | – | – | – | – | 3.9 | 3.5 | – | –
4 | CO[C@@]12[C@H](COC(N)=O)C3=C(C(=O)C(C)=C(N)C3=O)N1C[C@@H]1N[C@@H]12 [MMC, mitomycin C, reference compound] | – | – | – | – | – | – | – | – | – | – | – | – | – | – | – | – | 1 | – | 14

Further lines, with some results ahead:

Row | solubility at 30 min [1] [mM] | solubility [2, 7] [mM] | solubility ([2]; CH2Cl2, Table 4.3, read-out: Solubility in CH2Cl2) [mM] | solubility ([2]; DMSO, Table 4.3, read-out: Solubility in DMSO) [mM] | NQO1 Initial Velocity @ 1 μM (NQO1) | Solubility in CH2Cl2 ([2]; CH2Cl2, Table 4.3) [mM] | Solubility in DMSO ([2]; DMSO, Table 4.3) [mM] | solubility [2, 9] [mM] | solubility [2, 10] [mM] | solubility [2, 11] [mM] | solubility [3] [mM] | SMILES | IC50 (MCF-7 cells; [4]) [µM] | IC50 (MCF-7 cells; [5]) [µM] | IC50 (MCF-7 cells; [6]) [µM] | Fold protection by DIC (MCF-7 cells) | IC50 (MCF-7 cells; [8]) [µM] | Fold Protection of MCF7 cells w/ 25 μM dicoumarol (MCF-7 cells; Table 1) | solubility in solvents evaluated [2] | IC50 (MCF-7 cells; Table 1, read-out: MCF7 IC50) [µM]
5 | 0.024 (≈ 9.13 µg/mL) | 46 (≈ 17500 µg/mL) | 120 (≈ 45700 µg/mL) | 71 (≈ 27000 µg/mL) | – | – | – | – | – | – | – | Cc1cc(=O)[nH]c2c1C(=O)c1c(C)cc(=O)n(C3CCCCCCC3)c1C2=O [Compound 4-39] | 0.83 ± 0.07 | > 0.5 | 4.1 ± 0.8 | 3.8 | – | – | – | –
6 | < 0.005 | 75 (≈ 26600 µg/mL) | – | – | 1300 ± 200 | 24 (≈ 8510 µg/mL) | 14 (≈ 4960 µg/mL) | 75 (≈ 26600 µg/mL) | 24 (≈ 8510 µg/mL) | 14 (≈ 4960 µg/mL) | 17 (≈ 6020 µg/mL) | CCCCn1c2c(c(CCC)cc1=O)C(=O)c1c(C)cc(=O)[nH]c1C2=O [Compound 4-26] | 0.77 ± 0.19 | > 0.5 | 2.2 ± 0.6 | 2.8 | 0.77 | 2.8 | – | –
7 | 0.084 (≈ 26.2 µg/mL) | 46 (≈ 14400 µg/mL) | – | – | 250 ± 20 | 10 (≈ 3120 µg/mL) | 21 (≈ 6560 µg/mL) | 46 (≈ 14400 µg/mL) | 10 (≈ 3120 µg/mL) | 21 (≈ 6560 µg/mL) | 6.2 (≈ 1940 µg/mL) | CCc1cc(=O)[nH]c2c1C(=O)c1c(CC)cc(=O)n(C)c1C2=O [Compound 4-29] | 3.8 ± 1.2 | > 0.5 | 4.8 ± 1.1 | 1.3 | 5 | 1.2 | – | –
